What is called IC50 is the concentration that inhibits the measured activity by half.

Data on 6 compounds can be found in US20050288299A1, “Azaindole derivatives as inhibitors of p38 kinase” (priority 2002, published 2005).

In this assay the target is p38α kinase (Homo sapiens, UniProt Q16539). The experiment in a line: p38α Flash Plate Assay (p38 kinase inhibition). In kind it is biochemical. To be noted: in vitro; 150 μM ATP, 0.05 mM biotinylated peptide substrate, 5 nM enzyme, 60 minute incubation at 30° Celsius; read-out: P38 α-FLASHPLATE IC50. On the procedure:
Assay for p38 Kinase Inhibition—p38α Flash Plate Assay
The compounds to be tested were solubilized in DMSO and diluted with water to the desired concentrations. The p38 kinase was diluted to 20 nM into a buffer containing 20 mM MOPS, pH 7.0, 25 mM beta-glycerol phosphate, 2 mg/ml gelatin, 0.5 mM EGTA (ethylene-bis-(oxyethylenenitrilo)-tetraacetic acid), and 4 mM dithiothreitol (DTT).
The reaction was carried out by mixing 20 μl test compound with 10 μl of a substrate cocktail containing 0.2 mM biotinylated peptide substrate and 0.6 mM ATP (+100 μCi/ml gamma-^33P-ATP) in a 5× assay buffer. The reaction was initiated by the addition of 10 μl of p38 kinase. Final assay conditions were 25 mM MOPS, pH 7.0, 26.25 mM beta-glycerol phosphate, 80 mM KCl, 22 mM MgCl2, 3 mM MgSO4, 1 mg/ml gelatin, 0.625 mM EGTA, 1 mM DTT, 0.05 mM peptide substrate, 150 μM ATP, and 5 nM enzyme. After a 60 minute incubation at 30° Celsius, the reaction was stopped by the addition of 10 μl per reaction of 0.25 M phosphoric acid.
A portion of the reaction was transferred to a streptavidin-coated Flash Plate (Perkin Elmer); the Flash Plate was incubated for 60 minutes at 30° Celsius and then washed 3× with PBS containing 0.01% Tween-20.
Counts incorporated are determined on a scintillation counter. Relative enzyme activity was calculated by subtracting background counts (counts measured in the absence of enzyme) from each result, and comparing the resulting counts to those obtained in the absence of inhibitor. IC50 values were determined with curve-fitting plots available with common software packages. The IC50 was expressed as the concentration of compound which inhibited the enzyme activity by 50%.

Sequence of p38α kinase (Q16539 whole entry): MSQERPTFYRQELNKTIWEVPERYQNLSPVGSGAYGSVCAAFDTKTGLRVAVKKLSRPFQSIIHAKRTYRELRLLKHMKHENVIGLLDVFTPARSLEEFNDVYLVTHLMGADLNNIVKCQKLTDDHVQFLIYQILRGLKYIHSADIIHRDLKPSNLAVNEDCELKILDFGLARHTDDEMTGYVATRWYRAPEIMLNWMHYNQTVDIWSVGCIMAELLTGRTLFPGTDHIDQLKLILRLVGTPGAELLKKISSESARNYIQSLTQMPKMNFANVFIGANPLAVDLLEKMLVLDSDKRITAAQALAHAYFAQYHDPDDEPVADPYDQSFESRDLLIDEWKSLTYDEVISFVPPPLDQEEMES

`CCNC(=O)C(=O)c1c[nH]c2nc(OC)c(C(=O)N3C[C@H](C)N(Cc4ccc(F)cc4)C[C@H]3C)cc12` [compound 47]: the half-maximal inhibitory concentration (IC50) was 20 nM. As for `CNC(=O)C(=O)c1c[nH]c2cc(Cl)c(C(=O)N3C[C@H](C)N(Cc4ccc(F)cc4)C[C@H]3C)nc12` [compound 73], the figure is 20 nM; as for `Cc1nc2c(ccn2C)cc1C(=O)N1C[C@H](C)N(Cc2ccc(F)cc2)C[C@H]1C` [compound 60], 160 nM; as for `COC(=O)C(=O)c1c[nH]c2ccc(C(=O)N3C[C@H](C)N(Cc4ccc(F)cc4)C[C@H]3C)nc12` [compound 68], 760 nM.

As to `Cc1nc2[nH]ccc2cc1C(=O)N1C[C@H](C)N(Cc2ccc(F)cc2)C[C@H]1C` [compound 40], the IC50 was found to be 420 nM. As for `CCOc1nc2[nH]cc(C(=O)C(=O)NC(C)C)c2cc1C(=O)N1C[C@H](C)N(Cc2ccc(F)cc2)C[C@H]1C` [compound 58], the figure is 50 nM.
